Test system: 422866-222-R5-J1-PDC spheroids with HUVEC/MSC, viability
Assay: Anticancer human tumor 422866-222-R5-J1-PDC patient-derived pancreatic adenocarcinoma cell line growth inhibition [GQUAD]
Conditions: for IC50: curve of first compound; for viability, T/C: stronger effect = lower value
From the text: DNA G-quadruplex Stabilizer Agents in Combinations in Complex Spheroids
A high-throughput screen of multi-cell type tumor spheroids was designed to identify active combinations of DNA G-quadruplex stabilizer agents and targeted small molecules. Complex spheroids include a stromal component modeled by human endothelial cells (HUVEC) and fibroblasts modeled by human mesenchymal stem cells (MSCs). The concentration ranges selected for each drug and investigational agent were based upon clinically achievable concentrations if the clinical Cmax of the agent was known.
Compounds. The drugs and investigational agents: pidnarulex (CX-5461; NSC782164), APTO-253 (NSC789042), BRACO-19 (NSC847499), peposertib (NSC802822), ceralasertib (NSC780249), elimusertib (NSC800525), camonsertib (NSC841442), AZD-1390 (NSC803789), olaparib (NSC753686), talazoparib (NSC767125), ART-558 (NSC835418), sotorasib (NSC818433), MRTX-1133 (NSC836407), SN-38 (NSC673596), topotecan (NSC609699), etoposide (NSC141540), doxorubicin (NSC123127), gemcitabine (NSC613327), 5-fluorouracil (NSC19893), paclitaxel (NSC125973), vemurafenib (NSC761431), panobinostat (NSC761190), R-306465 (JNJ-16241199; NSC773264), adavosertib (NSC754352), TP-3654 (NSC805149), carboplatin (NSC241240), KSQ-4279 (NSC840948), and staurosporine (NSC755774) were obtained from the National Cancer Institute (NCI) Developmental Therapeutics Program Chemical Repository (34). The FDA-approved anticancer drug set is available from the NCI Developmental Therapeutics Program. […] The stock solutions were prepared in dimethyl sulfoxide (DMSO, Sigma-Aldrich, St. Louis, MO, cat. D2650) at 800-fold the tested concentration and stored at -70 degrees C prior to their use. All drugs and investigational agents were tested over a range starting from a high concentration at or near the clinical Cmax and decreasing in half-log increments. If the clinical Cmax for an agent had not been determined, the highest concentration tested was 10 microM.
2.3 Cell Culture. All cells were maintained in an incubator at 37 degrees C and 5% CO2 with 95% humidity. The PDC lines were cultured according to standard operating procedures established by the NCI PDMR. All PDCs were thawed and cultured in Matrigel-coated flasks prepared with a working solution of 1X Ham's F-12 nutrient mix, without supplementation (Invitrogen, cat. 11765054), 100 U/mL penicillin-streptomycin (Invitrogen, cat. 15140122), and 2.5% Matrigel (Corning Inc., cat. 354248) for the first three passages. The 857933-349-R-J2-PDC line was cultured in 6C/Colon 1B media, which includes advanced DMEM/F-12 (Thermo Fisher Scientific, cat. 12634028), 10 mM HEPES (Thermo Fisher Scientific, cat. 15630080), 1X GlutaMAX supplement (Thermo Fisher Scientific, cat. 35050061), 0.1 mg/mL primocin (InvivoGen, cat. ant-pm-2), 10% defined fetal bovine serum, heat inactivated (HyClone Laboratories Inc., cat. SH30070.03HI), 50% L-WRN conditioned media (ATCC, cat. CRL-3276), 1.25 mM N-Acetyl-L-cysteine (Sigma-Aldrich, cat. A9165), 10 mM nicotinamide (Sigma-Aldrich, cat. N0636), 1X B-27 supplement (Thermo Fisher Scientific, cat. 17504044), 1X N-2 supplement (Thermo Fisher Scientific, cat. 17502048), 10 microM Y-27632 dihydrochloride (Tocris Bioscience, cat. 1254), and 50 ng/mL human EGF recombinant protein (Thermo Fisher Scientific, cat. PHG0311). The 485176-168-R4-J1-PDC line was cultured in Panc media, which includes all 6C/Colon 1B media components plus 100 ng/mL human FGF-10 (Thermo Fisher Scientific, cat. 100-26), 500 nM SB-431542 (Selleckchem, cat. S1067), and gastrin (Tocris, cat. 3006).
[…]

[1] = second compound 0.0316 µM, first compound 0.0316 µM
[2] = second compound 0.0316 µM, first compound 0.1 µM
[3] = second compound 0.0316 µM, first compound 0.316 µM
[4] = second compound 0.0316 µM, first compound 1 µM
[5] = second compound 0.0316 µM, first compound 3.16 µM
[6] = second compound 0.0316 µM, first compound 10 µM
[7] = second compound 0.1 µM, first compound 0.0316 µM
[8] = second compound 0.1 µM, first compound 0.1 µM
[9] = second compound 0.1 µM, first compound 0.316 µM
[10] = second compound 0.1 µM, first compound 1 µM
[11] = second compound 0.1 µM, first compound 3.16 µM
[12] = second compound 0.1 µM, first compound 10 µM
[13] = second compound 0.316 µM, first compound 0.0316 µM
[14] = second compound 0.316 µM, first compound 0.1 µM
[15] = second compound 0.316 µM, first compound 0.316 µM
[16] = second compound 0.316 µM, first compound 1 µM
[17] = second compound 0.316 µM, first compound 3.16 µM
[18] = second compound 0.316 µM, first compound 10 µM
[19] = second compound 1 µM, first compound 0.0316 µM
[20] = second compound 1 µM, first compound 0.1 µM
[21] = second compound 1 µM, first compound 0.316 µM
[22] = second compound 1 µM, first compound 1 µM
[23] = second compound 1 µM, first compound 3.16 µM
[24] = second compound 1 µM, first compound 10 µM
[25] = second compound 3.16 µM, first compound 0.0316 µM
[26] = second compound 3.16 µM, first compound 0.1 µM
[27] = second compound 3.16 µM, first compound 0.316 µM
[28] = second compound 3.16 µM, first compound 1 µM
[29] = second compound 3.16 µM, first compound 3.16 µM
[30] = second compound 3.16 µM, first compound 10 µM
[31] = second compound 10 µM, first compound 0.0316 µM
[32] = second compound 10 µM, first compound 0.1 µM
[33] = second compound 10 µM, first compound 0.316 µM
[34] = second compound 10 µM, first compound 1 µM
[35] = second compound 10 µM, first compound 3.16 µM
[36] = second compound 10 µM, first compound 10 µM
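Note: spheroids exposed to compounds for seven days before reading.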
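Throughout, for viability, T/C: percent viability relative to DMSO vehicle control taken as 100%.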

COc1cccc2c1C(=O)c1c(O)c3c(c(O)c1C2=O)CC(O)(C(=O)CO)CC3OC1CC(N)C(O)C(C)O1 (centres undefined) + Cc1[nH]c2ccc(F)cc2c1-c1nc2c3cccnc3c3ncccc3c2[nH]1
IC50 (second compound 0.0316 µM): 474 nM
IC50 (second compound 0.1 µM): 782 nM
IC50 (second compound 0.316 µM): 639 nM
IC50 (second compound 1 µM): 463 nM
IC50 (second compound 3.16 µM): 349 nM
IC50 (second compound 10 µM): 529 nM
viability, T/C [1]: 108%
viability, T/C [2]: 70.2%
viability, T/C [3]: 63.6%
viability, T/C [4]: 37.3%
viability, T/C [5]: 30%
viability, T/C [6]: 34.7%
viability, T/C [7]: 113%
viability, T/C [8]: 65.6%
viability, T/C [9]: 69.2%
viability, T/C [10]: 53.4%
viability, T/C [11]: 34%
viability, T/C [12]: 35%
viability, T/C [13]: 92%
viability, T/C [14]: 67.9%
viability, T/C [15]: 54%
viability, T/C [16]: 55.5%
viability, T/C [17]: 31.7%
viability, T/C [18]: 35.9%
viability, T/C [19]: 93.9%
viability, T/C [20]: 65.7%
viability, T/C [21]: 54.5%
viability, T/C [22]: 46.3%
viability, T/C [23]: 37.2%
viability, T/C [24]: 36.1%
viability, T/C [25]: 73.4%
viability, T/C [26]: 65.6%
viability, T/C [27]: 48.1%
viability, T/C [28]: 45.8%
viability, T/C [29]: 31.6%
viability, T/C [30]: 37.8%
viability, T/C [31]: 77.7%
viability, T/C [32]: 64.9%
viability, T/C [33]: 52.5%
viability, T/C [34]: 48%
viability, T/C [35]: 34.3%
viability, T/C [36]: 30.4%

C#Cc1c(F)ccc2cc(O)cc(-c3ncc4c(N5CC6CCC(C5)N6)nc(OCC56CCCN5CC(F)C6)nc4c3F)c12 (centres undefined) + Cc1[nH]c2ccc(F)cc2c1-c1nc2c3cccnc3c3ncccc3c2[nH]1
IC50 (second compound 0.0316 µM): 2180 nM
IC50 (second compound 0.1 µM): 2230 nM
IC50 (second compound 0.316 µM): 1930 nM
IC50 (second compound 1 µM): 2160 nM
IC50 (second compound 3.16 µM): 736 nM
IC50 (second compound 10 µM): 998 nM
viability, T/C [1]: 96.1%
viability, T/C [2]: 96.4%
viability, T/C [3]: 84.4%
viability, T/C [4]: 78%
viability, T/C [5]: 30.2%
viability, T/C [6]: 43.2%
viability, T/C [7]: 106%
viability, T/C [8]: 92.1%
viability, T/C [9]: 98.4%
viability, T/C [10]: 75.3%
viability, T/C [11]: 39.1%
viability, T/C [12]: 33.4%
viability, T/C [13]: 106%
viability, T/C [14]: 86%
viability, T/C [15]: 84%
viability, T/C [16]: 64.4%
viability, T/C [17]: 35%
viability, T/C [18]: 37.4%
viability, T/C [19]: 75.9%
viability, T/C [20]: 98.3%
viability, T/C [21]: 91.6%
viability, T/C [22]: 69%
viability, T/C [23]: 40.4%
viability, T/C [24]: 40.8%
viability, T/C [25]: 87.2%
viability, T/C [26]: 75.5%
viability, T/C [27]: 70.6%
viability, T/C [28]: 42.8%
viability, T/C [29]: 30.7%
viability, T/C [30]: 34.6%
viability, T/C [31]: 71.3%
viability, T/C [32]: 57.6%
viability, T/C [33]: 67%
viability, T/C [34]: 46.9%
viability, T/C [35]: 39.4%
viability, T/C [36]: 38%

Reference: PubChem BioAssay AID2060511 (Molecular Pharmacology Branch, DTP, NCI, 2025)
